Read-outs that look alike come from different tables or passages of the source.
What was measured:
Type in all cases: in vivo
[1] = system: eastern black nightshade (Solanum ptycanthum); assay: Test C pre/postemergence; settings: Preemergence
In short: (§1)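 Applications: preemergence onto seeded soil and postemergence onto 1- to 4-leaf seedlings, compound carried in non-phytotoxic solvent plus surfactant. Kept in greenhouse 12 to 14 days. Scored visually relative to untreated controls, 0 (no effect) to 100 (complete control).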

[2] = system: common ragweed (Ambrosia elatior); assay: Test C pre/postemergence; settings: for pest or weed control at 16 g/ha / pest or weed control at 31 g/ha / pest or weed control at 62 g/ha / pest or weed control at 125 g/ha: Ambrosia artemisiifolia
In short: as §1

[3] = system: bermudagrass (Cynodon dactylon); assay: Test C pre/postemergence; settings: for pest or weed control at 16 g/ha / pest or weed control at 31 g/ha / pest or weed control at 62 g/ha / pest or weed control at 125 g/ha: Cynodon dactylon
In short: as §1

[4] = system: water seeded rice seedlings (Oryza sativa cv. ‘Japonica-M202’); assay: Test E flooded paddy water application; settings: Flood, 21 days, scale 0 to 100 (0 no effect, 100 complete control)
In short: (§2)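 Response scored visually on a 0–100 scale (100 = complete control) at 21 days against untreated pots. Treatment was into paddy water 3 cm deep over silt loam, with plants at the 2.0–2.5-leaf stage, grown under 16-h light at 29.5/26.7 °C day/night.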

[5] = system: ducksalad (Heteranthera limosa); assay: Test E flooded paddy water application; settings: Flood, 21 days, scale 0 to 100 (0 no effect, 100 complete control)
In short: as §2

[6] = system: purple redstem (Ammannia coccinea); assay: Test E flooded paddy water application; settings: Flood, 21 days, scale 0 to 100 (0 no effect, 100 complete control)
In short: as §2

[7] = system: early watergrass (Echinochloa oryzoides); assay: Test E flooded paddy water application; settings: Flood, 21 days, scale 0 to 100 (0 no effect, 100 complete control)
In short: as §2

[8] = system: transplanted rice seedlings (Oryza sativa cv. ‘Japonica-M202’); assay: Test E flooded paddy water application; settings: Flood, 21 days, scale 0 to 100 (0 no effect, 100 complete control)
In short: as §2

[9] = 62 g ai/ha, scale 0 to 100, 0 no effect, 100 complete control
[10] = Postemergence, 62 g ai/ha, scale 0 to 100 (0 no effect, 100 complete control)
[11] = Postemergence, 125 g ai/ha, scale 0 to 100 (0 no effect, 100 complete control)
[12] = Postemergence, 250 g ai/ha, scale 0 to 100
[13] = Postemergence, 500 g ai/ha, scale 0 to 100
[14] = Preemergence, 62 g ai/ha, scale 0 to 100, 0 no effect, 100 complete control
[15] = Preemergence, 125 g ai/ha, scale 0 to 100
[16] = Preemergence, 250 g ai/ha, scale 0 to 100
[17] = Preemergence, 500 g ai/ha, scale 0 to 100

Q: Which results are given for COC(=O)c1nc(C2CC2)nc(N)c1F [Compound 25]?
A: pest or weed control at 16 g/ha ([1]; Solanum, pre-emergence, 16 g ai/ha, scale 0 to 100, 0 no effect, 100 complete control, read-out: Plant response rating, Nightshade): 0%; pest or weed control at 31 g/ha ([1]; Solanum, pre-emergence, 31 g ai/ha, scale 0 to 100, 0 no effect, 100 complete control, read-out: Plant response rating, Nightshade): 0%; pest or weed control at 62 g/ha ([1]; Solanum, pre-emergence, 62 g ai/ha, scale 0 to 100, 0 no effect, 100 complete control, read-out: Plant response rating, Nightshade): 30%; pest or weed control at 125 g/ha ([1]; Solanum, pre-emergence, 125 g ai/ha, scale 0 to 100, read-out: Plant response rating, Nightshade): 75%; pest or weed control at 16 g/ha ([2]; post-emergence, Postemergence, 16 g ai/ha, read-out: Plant response rating (scale of 0 to 100), Ragweed): 40%; pest or weed control at 31 g/ha ([2]; post-emergence, Postemergence, 31 g ai/ha, read-out: Plant response rating (scale of 0 to 100), Ragweed): 50%; pest or weed control at 62 g/ha ([2]; post-emergence, Postemergence, 62 g ai/ha, scale 0 to 100 (0 no effect, 100 complete control), read-out: Ragweed plant response rating): 65%; pest or weed control at 125 g/ha ([2]; post-emergence, Postemergence, 125 g ai/ha, scale 0 to 100 (0 no effect, 100 complete control), read-out: Ragweed plant response rating): 70%; pest or weed control at 16 g/ha ([2]; pre-emergence, Preemergence, 16 g ai/ha, scale 0 to 100, 0 no effect, 100 complete control, read-out: Plant response rating, Ragweed): 0%; pest or weed control at 31 g/ha ([2]; pre-emergence, Preemergence, 31 g ai/ha, scale 0 to 100, 0 no effect, 100 complete control, read-out: Plant response rating, Ragweed): 70%; pest or weed control at 62 g/ha ([2]; pre-emergence, Preemergence, 62 g ai/ha, scale 0 to 100, 0 no effect, 100 complete control, read-out: Plant response rating, Ragweed): 70%; pest or weed control at 125 g/ha ([2]; pre-emergence, Preemergence, 125 g ai/ha, scale 0 to 100, read-out: Plant response rating, Ragweed): 85%; pest or weed control at 16 g/ha ([3]; post-emergence, Postemergence, 16 g ai/ha, read-out: Plant response rating (scale of 0 to 100), Bermudagrass): 0%; pest or weed control at 31 g/ha ([3]; post-emergence, Postemergence, 31 g ai/ha, read-out: Plant response rating (scale of 0 to 100), Bermudagrass): 0%; pest or weed control at 62 g/ha ([3]; post-emergence, Postemergence, 62 g ai/ha, scale 0 to 100 (0 no effect, 100 complete control), read-out: Bermudagrass plant response rating): 0%; pest or weed control at 125 g/ha ([3]; post-emergence, Postemergence, 125 g ai/ha, scale 0 to 100 (0 no effect, 100 complete control), read-out: Bermudagrass plant response rating): 0%; pest or weed control at 16 g/ha ([3]; pre-emergence, Preemergence, 16 g ai/ha, scale 0 to 100, 0 no effect, 100 complete control, read-out: Plant response rating, Bermudagrass): 0%; pest or weed control at 31 g/ha ([3]; pre-emergence, Preemergence, 31 g ai/ha, scale 0 to 100, 0 no effect, 100 complete control, read-out: Plant response rating, Bermudagrass): 0%; pest or weed control at 62 g/ha ([3]; pre-emergence, Preemergence, 62 g ai/ha, scale 0 to 100, 0 no effect, 100 complete control, read-out: Plant response rating, Bermudagrass): 0%; pest or weed control at 125 g/ha ([3]; pre-emergence, Preemergence, 125 g ai/ha, scale 0 to 100, read-out: Plant response rating, Bermudagrass): 10%

Q: COC(=O)c1nc(C2CC2C)nc(N)c1Br (centres unmarked) [Compound 28] was tested. Which “Plant response rating, Nightshade” value [1, 9] did it give?
A: 100

Q: And the “Plant response rating, Nightshade” value ([1]; 125 g ai/ha, scale 0 to 100)?
A: 100

Q: And the “Plant response rating, Nightshade” value ([1]; 250 g ai/ha, scale 0 to 100)?
A: 100

Q: And the “Plant response rating, Nightshade” value ([1]; 500 g ai/ha, scale 0 to 100)?
A: 100

Q: What about the “Ragweed plant response rating” value [2, 10] of the same molecule?
A: 65

Q: What about the “Ragweed plant response rating” value [2, 11] of the same molecule?
A: 80

Q: And the “Plant response rating, Ragweed” value [2, 12]?
A: 90

Q: What about the “Plant response rating, Ragweed” value [2, 13] of the same molecule?
A: 95

Q: What about the “Plant response rating, Ragweed” value [2, 14] of the same molecule?
A: 65

Q: And the “Plant response rating, Ragweed” value [2, 15]?
A: 95

Q: And the “Plant response rating, Ragweed” value [2, 16]?
A: 100

Q: What about the “Plant response rating, Ragweed” value [2, 17] of the same molecule?
A: 100

Q: What about the “Bermudagrass plant response rating” value [3, 10] of the same molecule?
A: 0

Q: And the “Bermudagrass plant response rating” value [3, 11]?
A: 0

Q: And the “Plant response rating, Bermudagrass” value [3, 12]?
A: 0

Q: And the “Plant response rating, Bermudagrass” value [3, 13]?
A: 0

Q: What about the “Plant response rating, Bermudagrass” value [3, 14] of the same molecule?
A: 0

Q: And the “Plant response rating, Bermudagrass” value [3, 15]?
A: 20

Q: What about the “Plant response rating, Bermudagrass” value [3, 16] of the same molecule?
A: 30

Q: And the “Plant response rating, Bermudagrass” value [3, 17]?
A: 35

Q: Which “Plant response rating, Nightshade” value [1, 9] does the source give for CCOC(=O)Cc1nc(C2CC2)nc(N)c1Br [Compound 12] here?
A: 50

Q: What about the “Plant response rating, Nightshade” value ([1]; 125 g ai/ha, scale 0 to 100) of the same molecule?
A: 60

Q: What about the “Plant response rating, Nightshade” value ([1]; 250 g ai/ha, scale 0 to 100) of the same molecule?
A: 80

Q: What about the “Plant response rating, Ragweed” value [2, 14] of the same molecule?
A: 10

Q: And the “Plant response rating, Ragweed” value [2, 15]?
A: 20

Q: And the “Plant response rating, Ragweed” value [2, 16]?
A: 85

Q: What about the “Plant response rating, Bermudagrass” value ([3]; Preemergence, 31 g ai/ha, scale 0 to 100, 0 no effect, 100 complete control) of the same molecule?
A: 0

Q: And the “Plant response rating, Bermudagrass” value [3, 14]?
A: 0

Q: And the “Plant response rating, Bermudagrass” value [3, 15]?
A: 0

Q: What about the “Plant response rating, Bermudagrass” value [3, 16] of the same molecule?
A: 20

Q: What does the source list for CCOC(=O)c1nc(-c2ccc(I)cc2)nc(N)c1Cl [Compound 133]?
A: Rice, Water Seeded plant response rating ([4]; 64 g ai/ha): 0; Rice, Water Seeded plant response rating ([4]; 125 g ai/ha): 0; Rice, Water Seeded plant response rating ([4]; 250 g ai/ha): 35; Plant response rating, Rice, Water Seeded ([4]; 16 g ai/ha): 0; Plant response rating, Rice, Water Seeded ([4]; 32 g ai/ha): 0; Ducksalad plant response rating ([5]; 32 g ai/ha): 100; Ducksalad plant response rating ([5]; 64 g ai/ha): 100; Ducksalad plant response rating ([5]; 125 g ai/ha): 100; Ducksalad plant response rating ([5]; 250 g ai/ha): 100; Plant response rating, Ducksalad ([5]; 16 g ai/ha): 100; Redstem plant response rating ([6]; 64 g ai/ha): 65; Redstem plant response rating ([6]; 125 g ai/ha): 75; Redstem plant response rating ([6]; 250 g ai/ha): 85; Plant response rating, Redstem ([6]; 16 g ai/ha): 0; Plant response rating, Redstem ([6]; 32 g ai/ha): 20; Watergrass, Early plant response rating ([7]; 64 g ai/ha): 0; Watergrass, Early plant response rating ([7]; 125 g ai/ha): 0; Watergrass, Early plant response rating ([7]; 250 g ai/ha): 0; Plant response rating, Watergrass, Early ([7]; 16 g ai/ha): 0; Plant response rating, Watergrass, Early ([7]; 32 g ai/ha): 0; Rice, Transplanted plant response rating ([8]; 64 g ai/ha): 0; Rice, Transplanted plant response rating ([8]; 125 g ai/ha): 0; Rice, Transplanted plant response rating ([8]; 250 g ai/ha): 0; Plant response rating, Rice, Transplanted ([8]; 16 g ai/ha): 0; Plant response rating, Rice, Transplanted ([8]; 32 g ai/ha): 0; Plant response rating (scale of 0 to 100), Ragweed ([2]; Postemergence, 16 g ai/ha): 80; Plant response rating (scale of 0 to 100), Ragweed ([2]; Postemergence, 31 g ai/ha): 80; Plant response rating (scale of 0 to 100), Ragweed ([2]; Postemergence, 62 g ai/ha): 85; Ragweed plant response rating [2, 11]: 95; Plant response rating (scale of 0 to 100), Bermudagrass ([3]; Postemergence, 16 g ai/ha): 50; Plant response rating (scale of 0 to 100), Bermudagrass ([3]; Postemergence, 31 g ai/ha): 85; Bermudagrass plant response rating [3, 10]: 85; Bermudagrass plant response rating [3, 11]: 85

Source: US8802597B2, “Herbicidal pyrimidines” (E I du Pont de Nemours and Company, priority 2003, dated 2014)
